Test results as given in patent US20140309186A1, “Metabolomics-Based Identification of Disease-Causing Agents” (Georgia Tech Research Corporation, priority 2007, published 2014).

What was measured:
[1] = tested on: Jurkat cells; details: literature search; cited from earlier work
[2] = tested on: Jurkat cells; assay: Growth inhibition of Jurkat cells, resazurin-based in vitro toxicology assay (TOX-8); type: cell-based, Human; details: for activity at 100 µM: Homo sapiens, Jurkat, read-out: Jurkat cell growth as percentage of the untreated control
[3] = tested on: OVCAR-3 cells; assay: Growth inhibition of OVCAR-3 cells, resazurin-based in vitro toxicology assay (TOX-8); type: cell-based, human; details: single metabolite, 100 μM, 72 hours
[4] = tested on: OVCAR-3 cells; details: literature; cited from earlier work
[5] = tested on: human lymphoblast cells; assay: Growth of human lymphoblast cells cultured in identical conditions; type: cell-based; details: 50 μM
Protocol: The positive association between lowered metabolite levels in Jurkat cells as predicted by CoMet and antiproliferative activity of the metabolite in that cell line is highly significant (Fisher's exact test two-tailed p-value=8.7×10^−6). Furthermore, when the effect of these metabolites on growth inhibition was tested in Jurkat and human lymphoblast cells cultured in identical conditions, a pattern of selectivity of the antiproliferative effect towards the cancer cell line became evident.

[6] = tested on: HT29 colon cancer cells; details: literature; cited from earlier work
[7] = biological target: T1, histone deacetylase 1 (Homo sapiens, UniProt Q13547); details: literature; cited from earlier work
T1 construct: host or cells: HT29 (cell context of the cited finding)

[8] = tested on: normal T lymphocytes; details: cited from earlier work
[9] = tested on: malignant erythroblasts; details: literature; cited from earlier work
[10] = tested on: RNA polymerase II; details: literature; cited from earlier work
[11] = tested on: HeLa cell; details: literature; cited from earlier work
[12] = biological target: T2, tryptophanyl-tRNA synthetase (Homo sapiens, UniProt P23381); details: literature; cited from earlier work
T2 construct: host or cells: HeLa (cell context of the cited finding)
T2 sequence (P23381 1-471): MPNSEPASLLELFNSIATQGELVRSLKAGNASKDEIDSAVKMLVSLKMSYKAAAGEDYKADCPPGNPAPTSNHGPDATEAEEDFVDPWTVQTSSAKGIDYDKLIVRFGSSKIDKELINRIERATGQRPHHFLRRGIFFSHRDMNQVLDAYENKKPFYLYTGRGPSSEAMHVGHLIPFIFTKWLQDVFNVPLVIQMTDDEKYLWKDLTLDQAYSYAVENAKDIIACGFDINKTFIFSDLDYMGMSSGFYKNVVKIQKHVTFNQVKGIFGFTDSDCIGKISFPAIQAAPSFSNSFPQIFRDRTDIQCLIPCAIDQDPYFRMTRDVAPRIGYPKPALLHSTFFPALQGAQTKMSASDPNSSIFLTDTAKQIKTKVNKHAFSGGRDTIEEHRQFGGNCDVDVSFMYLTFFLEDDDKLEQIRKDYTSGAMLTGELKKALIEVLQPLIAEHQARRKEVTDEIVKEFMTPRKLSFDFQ

[13] = tested on: HL-60 cells; details: literature; cited from earlier work
[14] = single metabolite, 100 μM, 72 hour treatment, control = 100%, lower = stronger inhibition

T1 sequence (Q13547 whole entry): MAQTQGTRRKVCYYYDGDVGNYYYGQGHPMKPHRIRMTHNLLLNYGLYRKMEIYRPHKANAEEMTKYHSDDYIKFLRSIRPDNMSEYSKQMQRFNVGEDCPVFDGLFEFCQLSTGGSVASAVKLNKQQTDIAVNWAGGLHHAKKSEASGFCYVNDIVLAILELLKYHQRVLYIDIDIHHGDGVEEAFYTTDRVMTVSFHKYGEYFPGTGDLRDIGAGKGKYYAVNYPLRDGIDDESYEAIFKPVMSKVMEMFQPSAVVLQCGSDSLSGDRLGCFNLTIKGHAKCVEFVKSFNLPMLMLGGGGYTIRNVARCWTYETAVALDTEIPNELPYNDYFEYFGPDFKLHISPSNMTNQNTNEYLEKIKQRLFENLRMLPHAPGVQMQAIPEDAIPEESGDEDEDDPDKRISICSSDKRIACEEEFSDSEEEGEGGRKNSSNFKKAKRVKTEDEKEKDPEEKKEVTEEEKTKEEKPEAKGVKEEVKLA

Compound | anticancer activity in Jurkat cells known from the literature [1] | activity at 100 µM [2, 14] | other results
C[C@]12CC[C@H]3[C@@H](CCC4=CC(=O)CC[C@@]43C)[C@@H]1CC[C@@H]2O [testosterone] | active in Jurkat cells | – | –
Cc1cn([C@H]2C[C@H](O)[C@@H](CO)O2)c(=O)[nH]c1=O [thymidine] | antineoplastic agent | – | –
Cc1cc2nc3c(=O)[nH]c(=O)nc-3n(C[C@H](O)[C@H](O)[C@H](O)CO)c2cc1C [riboflavin] | – | > 70% | –
COc1ccc2[nH]cc(CCNC(C)=O)c2c1 [melatonin] | active in Jurkat cells | – | –
OC[C@H]1O[C@@H](n2cnc3c(O)ncnc32)C[C@@H]1O [2′-deoxyinosine] | active in Jurkat cells | – | –
CCCCC/C=C\C/C=C\CCCCCCCC(=O)O [linoleic acid] | active in Jurkat cells | – | –
N[C@@H](CS(=O)O)C(=O)O [sulfino-L-alanine, 3-sulfino-L-alanine] | – | – | effect on growth of Jurkat cells (in words) ([2]; single metabolite, 100 μM, 72 hour treatment): did not inhibit the growth; effect on growth of OVCAR-3 cells (in words) [3]: did not inhibit the growth
NC(=O)c1cccnc1 [nicotinamide] | active in Jurkat cells | – | –
Nc1ncnc2c1ncn2[C@H]1C[C@H](O)[C@@H](CO)O1 [2′-deoxyadenosine] | active in Jurkat cells | – | –
O=C(O)CC(O)(CC(=O)O)C(=O)O [citric acid] | – | > 90% | –
N[C@@H](Cc1cc(I)c(Oc2ccc(O)c(I)c2)c(I)c1)C(=O)O [3′,3,5-triiodo-L-thyronine] | – | – | anticancer activity in OVCAR-3 cells previously demonstrated [4]: anticancer activity
CCCCCCCCCCCCCCCCC(O)C(=O)O (stereo not drawn) [α-hydroxystearic acid] | – | 67.8% | –
C[C@]12CC[C@H](O)CC1=CC[C@@H]1[C@@H]2CC[C@]2(C)C(=O)CC[C@@H]12 [dehydroepiandrosterone] | – | – | effect on proliferation of lymphoblasts (in words) [5]: stimulated the proliferation; effect on growth of Jurkat cells (in words) ([2]; 50 μM): inhibited the growth
CCCCCCCCCC(O)CCCCCCCC(=O)O (stereo not drawn) [9-hydroxystearic acid] | – | – | effect on HT29 colon cancer cells [6]: arrests HT29 colon cancer cells in G0/G1 phase; effect on histone deacetylase 1 [7]: inhibition
C=CC1=C(C)/C(=C/c2[nH]c(Cc3[nH]c(/C=C4\NC(=O)C(C)=C4C=C)c(C)c3CCC(=O)O)c(CCC(=O)O)c2C)NC1=O [bilirubin] | – | 21.3% | –
CC(C)(CO)[C@@H](O)C(=O)NCCC(=O)O [pantothenic acid] | – | > 90% | –

Compound | anticancer activity in Jurkat cells known from the literature [1] | activity at 100 µM [2, 14] | other results
COc1cc2c(cc1O)CC[C@@H]1[C@@H]2CC[C@]2(C)[C@@H](O)CC[C@@H]12 [2-methoxy-estradiol-17β] | apoptotic agent | – | anticancer activity in OVCAR-3 cells previously demonstrated [4]: anticancer activity
Nc1nc2ncc(CNc3ccc(C(=O)N[C@@H](CCC(=O)O)C(=O)O)cc3)nc2c(=O)[nH]1 [folic acid] | – | > 90% | –
CC(=O)C=O [methylglyoxal] | active in Jurkat cells | – | –
CCCCC[C@H](O)/C=C/[C@H]1C(=O)C[C@H](O)[C@@H]1C/C=C\CCCC(=O)O [prostaglandin D2] | induces apoptosis | – | effect on viability of normal T lymphocytes [8]: without inhibiting the viability
Nc1nc2c(ncn2[C@H]2C[C@H](O)[C@@H](CO)O2)c(=O)[nH]1 [2′-deoxyguanosine] | active in Jurkat cells | – | –
C=C1/C(=C\C=C2/CCC[C@]3(C)[C@@H]([C@H](C)CCCC(C)(C)O)CC[C@@H]23)C[C@@H](O)C[C@@H]1O [calcitriol] | – | – | anticancer activity in OVCAR-3 cells previously demonstrated [4]: anticancer activity
Cc1cc2nc[nH]c2cc1C [5,6-di-ethylbenzimidazole, 5,6-dimethylbenzimidazole] | – | 61.4% | –
sphingolipid GD3 | active in Jurkat cells | – | –
Clc1cc2nc[nH]c2cc1Cl [5,6-dichlorobenzimidazole] | – | – | effect on malignant erythroblasts [9]: induces differentiation; effect on RNA polymerase II [10]: inhibiting
CC(C)CCC[C@@H](C)[C@H]1CC[C@H]2[C@@H]3CC=C4C[C@@H](O)CC[C@]4(C)[C@H]3CC[C@]12C [cholesterol] | – | > 90% | –
CC(=O)CO [hydroxyacetone] | – | > 70% | –
NCCc1c[nH]c2ccccc12 [tryptamine] | – | – | effect on HeLa cell growth [11]: effective inhibitor; effect on tryptophanyl-tRNA synthetase [12]: competitive inhibition
COc1cc(C(O)C(=O)O)ccc1O (stereo not drawn) [vanillylmandelic acid] | – | > 90% | –
CC1=C(/C=C/C(C)=C/C=C/C(C)=C/C(=O)O)C(C)(C)CCC1 [all-trans-retinoic acid] | – | – | anticancer activity in OVCAR-3 cells previously demonstrated [4]: anticancer activity
menaquinone | – | – | effect on HL-60 cells [13]: induce G0/G1 arrest, differentiation, and apoptosis; Jurkat cell growth as percentage of the untreated control [2, 14]: 11.3%
